Measurements reported in paper PMC11079024, “Identification of a family of species-selective complex I inhibitors as potential anthelmintics” (Nature Communications, 2024).
pIC50: −log10 of the molar value. Like-named read-outs stand apart in the source and are kept apart here.

Experiments:
[1] = target: C. elegans (N2) complex I (NADH:ubiquinone oxidoreductase) (Caenorhabditis elegans, UniProt P24887+Q93873+Q94360); experiment: biochemical; format: biochemical; details: for activity at 0.0001 µM / activity at 0.0005 µM / activity at 0.001 µM / activity at 0.0025 µM / activity at 0.005 µM / activity at 0.013 µM / activity at 0.025 µM / activity at 0.063 µM / activity at 0.125 µM / activity at 0.313 µM / activity at 0.625 µM / activity at 1.5 µM / activity at 3 µM / activity at 15 µM / activity at 37.5 µM / activity at 75 µM: read-out: C. elegans mitochondrial complex I activity; for Log IC50 C. elegans complex I: log10 of IC50 in µM, C. elegans mitochondria
Sequence of C. elegans (N2) complex I (NADH:ubiquinone oxidoreductase) (Q94360 17-199): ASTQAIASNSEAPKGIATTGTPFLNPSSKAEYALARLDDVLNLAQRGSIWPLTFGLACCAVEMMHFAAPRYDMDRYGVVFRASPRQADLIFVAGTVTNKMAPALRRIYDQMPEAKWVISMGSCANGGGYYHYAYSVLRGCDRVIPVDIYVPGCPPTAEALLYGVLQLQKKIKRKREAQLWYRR
Sequence of C. elegans (N2) complex I (NADH:ubiquinone oxidoreductase) (P24887 whole entry): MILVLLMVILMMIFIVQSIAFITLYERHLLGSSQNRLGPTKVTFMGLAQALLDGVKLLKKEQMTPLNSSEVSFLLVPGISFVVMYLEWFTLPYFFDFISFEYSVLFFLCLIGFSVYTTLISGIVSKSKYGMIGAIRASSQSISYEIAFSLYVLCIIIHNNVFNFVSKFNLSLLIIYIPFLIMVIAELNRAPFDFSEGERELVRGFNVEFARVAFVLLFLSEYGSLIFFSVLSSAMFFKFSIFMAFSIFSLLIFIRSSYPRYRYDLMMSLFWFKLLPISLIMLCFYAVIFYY
Sequence of C. elegans (N2) complex I (NADH:ubiquinone oxidoreductase) (Q93873 31-482): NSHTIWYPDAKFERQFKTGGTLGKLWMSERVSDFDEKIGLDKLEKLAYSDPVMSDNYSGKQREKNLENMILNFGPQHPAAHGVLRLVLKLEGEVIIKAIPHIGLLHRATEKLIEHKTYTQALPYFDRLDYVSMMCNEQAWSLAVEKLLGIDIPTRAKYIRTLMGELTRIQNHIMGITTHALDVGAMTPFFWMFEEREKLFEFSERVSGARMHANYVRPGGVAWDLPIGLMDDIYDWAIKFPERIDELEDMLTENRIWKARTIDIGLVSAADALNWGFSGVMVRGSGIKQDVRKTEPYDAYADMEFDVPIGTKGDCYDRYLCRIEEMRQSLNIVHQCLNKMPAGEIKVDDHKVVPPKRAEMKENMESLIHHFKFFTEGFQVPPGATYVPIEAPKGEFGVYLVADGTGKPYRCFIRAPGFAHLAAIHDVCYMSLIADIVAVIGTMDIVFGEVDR
Method in brief: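 Complex I rate: initial linear slope of A600 over 15 min, expressed as percent of solvent control. Triple freeze-thawed mitochondria (0.2 mg/mL) in KPi pH 7.5, BSA 3 mg/mL, NADH 80 μM, decylubiquinone 60 μM, DCIP 160 μM, antimycin A, KCN.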

[2] = target: B. taurus (heart) complex I (Bos taurus, UniProt P03887+P17694+P42026); experiment: biochemical; format: biochemical; details: for pIC50: B. taurus heart mitochondria, read-out: B. taurus Complex I IC50; for activity at 0.0001 µM / activity at 0.0005 µM / activity at 0.001 µM / activity at 0.0025 µM / activity at 0.005 µM / activity at 0.013 µM / activity at 0.025 µM / activity at 0.063 µM / activity at 0.125 µM / activity at 0.313 µM / activity at 0.625 µM / activity at 1.5 µM / activity at 3 µM / activity at 15 µM / activity at 37.5 µM / activity at 75 µM: read-out: B. taurus mitochondrial complex I activity; for Log IC50 B. taurus complex I: log10 of IC50 in µM, B. taurus mitochondria
Sequence of B. taurus (heart) complex I (P03887 whole entry): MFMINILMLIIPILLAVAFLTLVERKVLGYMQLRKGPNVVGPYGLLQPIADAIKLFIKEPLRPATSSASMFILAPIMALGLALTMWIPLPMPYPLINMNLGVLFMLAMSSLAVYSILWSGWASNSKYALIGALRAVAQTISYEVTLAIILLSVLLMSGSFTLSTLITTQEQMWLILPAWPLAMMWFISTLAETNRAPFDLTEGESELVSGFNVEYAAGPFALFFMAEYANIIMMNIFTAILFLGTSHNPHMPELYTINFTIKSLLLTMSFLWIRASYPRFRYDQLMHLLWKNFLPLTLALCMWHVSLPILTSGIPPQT
Sequence of B. taurus (heart) complex I (P17694 34-463): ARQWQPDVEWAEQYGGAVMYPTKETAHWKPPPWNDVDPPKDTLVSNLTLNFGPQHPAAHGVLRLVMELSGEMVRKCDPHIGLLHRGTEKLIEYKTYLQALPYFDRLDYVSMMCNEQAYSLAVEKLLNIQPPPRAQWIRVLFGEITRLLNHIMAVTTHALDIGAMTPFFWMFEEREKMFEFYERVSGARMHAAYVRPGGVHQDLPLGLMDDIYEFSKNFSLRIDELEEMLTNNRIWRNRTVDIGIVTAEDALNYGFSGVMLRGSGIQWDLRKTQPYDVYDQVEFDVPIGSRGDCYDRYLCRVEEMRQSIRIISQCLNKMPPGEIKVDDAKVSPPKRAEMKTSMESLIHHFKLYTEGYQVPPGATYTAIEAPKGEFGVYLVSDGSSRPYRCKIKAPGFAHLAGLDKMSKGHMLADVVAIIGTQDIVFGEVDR
Sequence of B. taurus (heart) complex I (P42026 38-216): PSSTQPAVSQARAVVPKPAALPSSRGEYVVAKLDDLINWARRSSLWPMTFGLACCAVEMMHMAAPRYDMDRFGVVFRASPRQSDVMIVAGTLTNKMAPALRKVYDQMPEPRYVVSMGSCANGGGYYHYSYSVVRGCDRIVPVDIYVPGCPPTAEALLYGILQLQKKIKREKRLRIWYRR
Method in brief: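 Complex I activity followed as DCIP reduction (600 nm, 30 s reads, 15 min) with 80 μM NADH and 60 μM decylubiquinone in 25 mM KPi pH 7.5 containing 2 μM antimycin A and 2 mM KCN. Freeze-thawed mouse or bovine heart mitochondria at 0.2 mg/mL; initial-rate percent of solvent control, single-point 100 μM or dose-response.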

[3] = in vitro complex I dose response on C. elegans mitochondria, average of at least two biological replicates, fit in R (DRC), read-out: IC50 C. elegans complex I
[4] = wild-type C. elegans mitochondria, estimated from fitted dose-response curves, read-out: C. elegans Complex I IC50
[5] = estimated from fitted dose-response curves

For `Cc1ccc(C(C)C)c(OCC(O)Cn2cnc3ccccc32)c1` (centres unmarked) [Compound 6093301], the activity at 0.0001 µM [1] was 99.6%, the activity at 0.0005 µM [1] was 97.6% and the activity at 0.001 µM [1] was 98.6%. The activity at 0.0025 µM [1] was 105%, the activity at 0.005 µM [1] was 96.1% and the activity at 0.013 µM [1] was 93.6%. It also gave an activity at 0.025 µM [1] of 90.6%, an activity at 0.063 µM [1] of 81.2% and an activity at 0.125 µM [1] of 72.6%. The activity at 0.313 µM [1] was 50.3%, the activity at 0.625 µM [1] was 38.5% and the activity at 1.5 µM [1] was 20.3%. It also gave an activity at 3 µM [1] of 11.5%, an activity at 15 µM [1] of 1.13% and an activity at 37.5 µM [1] of 0%. For the same compound, the activity at 75 µM [1] was 0%, the pIC50 [1, 3] was 6.44 and the “Log IC50 C. elegans complex I” value [1] was -0.44 µM. For the same compound, the pIC50 [1, 4] was 6.44, the pIC50 [2, 5] was 5.68 and the activity at 0.0001 µM [2] was 94.9%. For the same compound, the activity at 0.0005 µM [2] was 95.3%, the activity at 0.001 µM [2] was 95.9% and the activity at 0.0025 µM [2] was 100%. The activity at 0.005 µM [2] was 99.5%, the activity at 0.013 µM [2] was 100% and the activity at 0.025 µM [2] was 96.1%. The activity at 0.063 µM [2] was 94%, the activity at 0.125 µM [2] was 90% and the activity at 0.313 µM [2] was 81.5%. The activity at 0.625 µM [2] was 75.8%, the activity at 1.5 µM [2] was 60.4% and the activity at 3 µM [2] was 45.2%. The activity at 15 µM [2] was 18%, the activity at 37.5 µM [2] was 13.4% and the activity at 75 µM [2] was 11.2%. For the same compound, the “Log IC50 B. taurus complex I” value [2] was 0.32 µM.

With `Cc1nc2ccccc2n1CCOc1ccccc1Cl` [Compound 5561642] the activity at 0.0001 µM [1] was 91.5%, the activity at 0.0005 µM [1] was 94% and the activity at 0.001 µM [1] was 89.2%. It also gave an activity at 0.0025 µM [1] of 95%, an activity at 0.005 µM [1] of 93.1% and an activity at 0.013 µM [1] of 84.7%. The activity at 0.025 µM [1] was 83.1%, the activity at 0.063 µM [1] was 81.1% and the activity at 0.125 µM [1] was 84.1%. For the same compound, the activity at 0.313 µM [1] was 65.5%, the activity at 0.625 µM [1] was 71.7% and the activity at 1.5 µM [1] was 51.9%. For the same compound, the activity at 3 µM [1] was 40.7%, the activity at 15 µM [1] was 12.4% and the activity at 37.5 µM [1] was 4.46%. For the same compound, the activity at 75 µM [1] was 4.41%, the pIC50 [1, 3] was 5.63 and the “Log IC50 C. elegans complex I” value [1] was 0.37 µM. For the same compound, the pIC50 ([1]; wild-type C. elegans mitochondria, read-out: C. elegans Complex I IC50) was 5.63, the pIC50 [2] was 5.09 and the activity at 0.0001 µM [2] was 88.4%. The activity at 0.0005 µM [2] was 88.9%, the activity at 0.001 µM [2] was 90.3% and the activity at 0.0025 µM [2] was 85.7%. For the same compound, the activity at 0.005 µM [2] was 90.4%, the activity at 0.013 µM [2] was 86.9% and the activity at 0.025 µM [2] was 83.6%. It also gave an activity at 0.063 µM [2] of 88.9%, an activity at 0.125 µM [2] of 88.4% and an activity at 0.313 µM [2] of 83.2%. The activity at 0.625 µM [2] was 86.2%, the activity at 1.5 µM [2] was 75.9% and the activity at 3 µM [2] was 63.2%. It also gave an activity at 15 µM [2] of 29.8%, an activity at 37.5 µM [2] of 11.9% and an activity at 75 µM [2] of 6%. The “Log IC50 B. taurus complex I” value [2] was 0.91 µM.

For `Cc1nc2ccccc2n1Cc1ccccc1Cl` [Compound 6707368], the pIC50 [1, 3] was 6.25, the “Log IC50 C. elegans complex I” value [1] was -0.25 µM and the pIC50 ([1]; wild-type (N2) mitochondria, read-out: C. elegans Complex I IC50) was 6.25. The pIC50 [1, 4] was 6.25, the pIC50 [2, 5] was 5.40 and the “Log IC50 B. taurus complex I” value [2] was 0.60 µM.
